Assay: in vivo
Settings: rat, 5 mg/kg

CCN1CCN(Cc2ccc(Nc3ncc(F)c(-c4cc(F)c5nc(C)n(C(C)C)c5c4)n3)nc2)CC1 [ABEMACICLIB]
AUC: 3280 ng·h/mL
